In one data set the test system is amyloid β protein. The following applies: reported in Non-patent Reference 1; cited from earlier work.
Data set [1] is described as follows: water solubility compared with scyllo-inositol. Type of data set: physicochemical. Particulars: 25° C., W/V; ratio to scyllo-inositol. The source says:
Since the scyllo-inositol derivative of the present invention can be produced and treated at high concentration in an aqueous solution, producing scyllo-inositol by obtaining the scyllo-inositol derivative of the present invention and treating it enzymatically has many advantages. Such methods are therefore one preferred method of utilizing the scyllo-inositol derivative of the present invention.

For `O[C@H]1[C@H](O)[C@@H](O)[C@H](O)[C@@H](O)[C@@H]1O` [scyllo-inositol, cis-1,3,5-trans-2,4,6-cyclohexanehexyl], the “effect on amyloid β protein aggregation” value with amyloid β protein was “inhibitory effect”.

Take `OC[C@@H]1O[C@@H](O[C@H]2[C@H](O)[C@H](O)[C@H](O)[C@@H](O)[C@H]2O)[C@@H](O)[C@@H](O)[C@@H]1O` [scyllo-inositol derivative, 1-O-β-D-glucopyranosyl-scyllo-inositol]: the “water solubility relative to the original scyllo-inositol” value in data set [1] was “at least four”.

The record behind these values is patent US9505795B2, “Method for producing scyllo-inositol” (Asahi Kasei Chemicals Corporation, priority 2012, dated 2016).
